This passage reports MIC results from patent publication US5556979A, “7-isoindolinyl-naphthyridone derivatives, compositions and anti-bacterial use thereof” (Bayer Aktiengesellschaft, priority 1992, dated 1996).

Converted amounts (≈) assume the structure as drawn.

What all share (assay): Minimum inhibitory concentration (MIC), serial dilution on Iso-Sensitest agar
Holding throughout (format): cell-based

The test system of assay [1] is Pseudomonas aeruginosa Walter. Conditions: 37° C., about 20 hours. The procedure: (§1) The minimum inhibitory concentrations (MIC) were determined by means of serial dilution methods on Iso-Sensitest agar (Oxoid). For each substance to be tested, a series of agar plates was prepared which contained concentrations of the active compound which decreased by a double dilution on each occasion. The agar plates were inoculated with a Multipoint inoculator (Denley). For the inoculation, overnight cultures of the pathogens were used which had previously been diluted so that each inoculation spot contained about 10^4 colony-forming particles. The inoculated agar plates were incubated at 37° C. and the organism growth was recorded after about 20 hours. The MIC value (μg/ml) indicates the lowest concentration of active compound at which no growth could be detected with the naked eye.

The test system of another assay is Providencia sp. 12012. As to conditions: 37° C., about 20 hours. The procedure:
as §1

Assay [2] deals with Staphylococcus aureus 1756. Conditions: 37° C., about 20 hours. On the procedure: as §1
In assay [3] the test system is Enterobacter cloacae 2427. Conditions: 37° C., about 20 hours. The procedure:
as §1

Assay [4] concerns Entercoccus faecalis 27 101. As to conditions: 37° C., about 20 hours. The procedure: as §1
Assay [5] relates to Staphylococcus aureus ICB 25701. As to conditions: ICB25701, 37° C., about 20 hours. On the procedure: as §1
Another assay relates to Klebsiella sp. 8085. As to conditions: 37° C., about 20 hours. The procedure:
as §1

The next assay deals with Micrococcus luteus 9341. As to conditions: 37° C., about 20 hours. On the procedure:
as §1

The subject of another assay is E. coli Neumann. As to conditions: Escherichia coli, 37° C., about 20 hours. The procedure: as §1
The test system of a further assay is Morganella morg. 932. Conditions: 37° C., about 20 hours. On the procedure:
as §1

Regarding `N[C@@H]1CC=C[C@@H]2CN(c3cc4c(cc3F)c(=O)c(C(=O)O)cn4C3CC3)C[C@@H]12` (relative stereo) [Example 6, (1'SR,2'RS,6'SR)-7-(2'-amino-8'-azahicyclo[4.3.0]non-4'-en-8'-yl)-1-cyclopropyl-6-fluoro-1,4-dihydro-4-oxo-3-quinolinecarboxylic acid], the MIC is 0.5 µg/mL (≈ 1.3 µM) in [1]; 0.03 µg/mL (≈ 0.0782 µM) with Providencia sp. 12012; not above 0.015 µg/mL in assay [2]; 0.06 µg/mL (≈ 0.156 µM) in assay [3]; 0.03 µg/mL (≈ 0.0782 µM) in [4]; 0.125 µg/mL (≈ 0.326 µM) in assay [5]. The figures for the minimal inhibitory concentration (MIC) against Klebsiella sp. 8085, against Micrococcus luteus 9341 and against E. coli Neumann were 0.03 µg/mL (≈ 0.0782 µM), 0.06 µg/mL (≈ 0.156 µM) and not above 0.015 µg/mL, respectively.

Regarding `Nc1c(F)c(N2C[C@H]3[C@H](N)CC=C[C@@H]3C2)c(F)c2c1c(=O)c(C(=O)O)cn2C1CC1` (relative stereo) [Example 19, (1 'SR,2 'RS,6 'SR)-5-Amino-7-(2 '-amino-8 '-azabicyclo[4.3.0]non-4'-en-8'-yl)-1-cyclopropyl-6,8-difluoro-1,4-dihydro-4-oxo-3-quinolinecarboxylic acid], the MIC in assay [1] was 1 µg/mL (≈ 2.4 µM); against Providencia sp. 12012 it was not above 0.015 µg/mL; in assay [2] it was not above 0.015 µg/mL; in assay [3] it was 0.03 µg/mL (≈ 0.072 µM); in assay [4], not above 0.015 µg/mL; in assay [5], 0.03 µg/mL (≈ 0.072 µM). In addition, the minimal inhibitory concentration (MIC) is 0.03 µg/mL (≈ 0.072 µM) in the assay on Klebsiella sp. 8085, 0.06 µg/mL (≈ 0.144 µM) against Micrococcus luteus 9341, 0.03 µg/mL (≈ 0.072 µM) with Morganella morg. 932 and not above 0.015 µg/mL in the assay with E. coli Neumann.

For `CC1COc2c(N3C[C@H]4[C@H](N)CC=C[C@@H]4C3)c(F)cc3c(=O)c(C(=O)O)cn1c23` (stereo partly drawn) [Example 14, (1'SR,2'RS,6'SR)-10-(2'-Amino-8'-azabicyclo [4.3.0]non-4'-en-8'-yl)-9-fluoro-2,3-dihydro-3-methyl-7-oxo-7H-pyrido[1,2,3-de][1,4]benzoxazine-6-carboxylic acid], the minimum inhibitory concentration (MIC) in [1] is 1 µg/mL (≈ 2.5 µM); against Providencia sp. 12012 it was 0.125 µg/mL (≈ 0.313 µM); in assay [2] it was 0.0078 µg/mL (≈ 0.0195 µM); in assay [3] it was 0.125 µg/mL (≈ 0.313 µM); in assay [4] it was 0.03 µg/mL (≈ 0.0751 µM); in [5], 0.25 µg/mL (≈ 0.626 µM). Also, the minimum inhibitory concentration (MIC) was found to be 0.125 µg/mL (≈ 0.313 µM) with Klebsiella sp. 8085, 0.125 µg/mL (≈ 0.313 µM) with Micrococcus luteus 9341, 0.125 µg/mL (≈ 0.313 µM) against Morganella morg. 932 and 0.03 µg/mL (≈ 0.0751 µM) with E. coli Neumann.

In the case of `N[C@@H]1CC=C[C@@H]2CN(c3c(F)cc4c(=O)c(C(=O)O)cn(C5CC5)c4c3F)C[C@@H]12` (relative stereo) [Example 4, (1'SR,2'RS,6'SR)-7-(2'-Amino-8'-azabicyclo[4.3.0]non-4'-en-8'-yl)-1-cyclopropyl-6,8-difluoro-1,4-hydro-4-oxo-3-quinolinecarboxylic acid], the MIC in [1] is 0.25 µg/mL (≈ 0.623 µM); in the assay with Providencia sp. 12012, 0.015 µg/mL (≈ 0.0374 µM); in assay [2], 0.0039 µg/mL (≈ 0.00972 µM); in [3], 0.015 µg/mL (≈ 0.0374 µM); in [4], 0.15 µg/mL (≈ 0.374 µM); in [5], 0.03 µg/mL (≈ 0.0747 µM). Further, the MIC in the assay with Klebsiella sp. 8085 turned out to be 0.015 µg/mL (≈ 0.0374 µM); against Micrococcus luteus 9341, 0.015 µg/mL (≈ 0.0374 µM); against Morganella morg. 932, 0.015 µg/mL (≈ 0.0374 µM); against E. coli Neumann it was 0.0078 µg/mL (≈ 0.0194 µM).

For `Nc1cccc2c1CN(c1c(F)cc3c(=O)c(C(=O)O)cn(C4CC4)c3c1F)C2` [*, 7-(4-amino-1,3-dihydro-isoindol-2-yl)-1-cyclopropyl-6,8-difluoro-1,4-dihydro-4-oxo-3-quinolinecarboxylic acid, reference compound], the MIC in assay [1] is more than 128 µg/mL; against Providencia sp. 12012, 1 µg/mL (≈ 2.52 µM); in assay [2], 0.03 µg/mL (≈ 0.0755 µM); in [4], 0.5 µg/mL (≈ 1.26 µM); with Klebsiella sp. 8085, 4 µg/mL (≈ 10.1 µM); with Morganella morg. 932, 1 µg/mL (≈ 2.52 µM). Inhibition of growth against E. coli Neumann (MIC) required 0.5 µg/mL (≈ 1.26 µM).

For the molecule `CN[C@@H]1CC=C[C@@H]2CN(c3c(F)cc4c(=O)c(C(=O)O)cn(C5CC5)c4c3F)C[C@H]21` (relative stereo) [Example 22, (1'SR,2'RS,6'SR)-1-Cyclopropyl-6,8-difluoro-1,4-dihydro-7-(2'-methylamino-8'-azabicyclo[4.3-0]non-4'-en-8'-yl)-4-oxo-3-quinolinecarboxylic acid], the minimal inhibitory concentration (MIC) in assay [1] is 2 µg/mL (≈ 4.81 µM); in the assay on Providencia sp. 12012, 0.125 µg/mL (≈ 0.301 µM); in assay [2], not above 0.015 µg/mL; in assay [3] it was 0.125 µg/mL (≈ 0.301 µM); in assay [4], 0.03 µg/mL (≈ 0.0722 µM); in assay [5] it was 0.125 µg/mL (≈ 0.301 µM). Further, the MIC in the assay on Klebsiella sp. 8085 is 0.06 µg/mL (≈ 0.144 µM); against Micrococcus luteus 9341, 0.125 µg/mL (≈ 0.301 µM); with Morganella morg. 932, 0.125 µg/mL (≈ 0.301 µM); with E. coli Neumann it was 0.03 µg/mL (≈ 0.0722 µM).

Turning to `N[C@@H]1CC=C[C@@H]2CN(c3c(F)cc4c(=O)c(C(=O)O)cn(C5CC5)c4c3Cl)C[C@@H]12` (relative stereo) [Example 12, (1'SR,2'RS,6'SR)-7-(2'-Amino-8'-azabicyclo[4.3.0]non-4'-en-8'-yl)-8-chloro-1-cyclopropyl-6-fluoro-1,4-dihydro-4-oxo-3-quinolinecarboxylic acid], the minimal inhibitory concentration (MIC) is 0.25 µg/mL (≈ 0.598 µM) in assay [1]; 0.015 µg/mL (≈ 0.0359 µM) against Providencia sp. 12012; not above 0.0019 µg/mL in [2]; 0.015 µg/mL (≈ 0.0359 µM) in assay [3]; 0.0078 µg/mL (≈ 0.0187 µM) in assay [4]; 0.015 µg/mL (≈ 0.0359 µM) in assay [5]. Also, the MIC turned out to be 0.015 µg/mL (≈ 0.0359 µM) in the assay on Klebsiella sp. 8085, 0.015 µg/mL (≈ 0.0359 µM) against Micrococcus luteus 9341, 0.015 µg/mL (≈ 0.0359 µM) in the assay with Morganella morg. 932 and 0.0039 µg/mL (≈ 0.00933 µM) with E. coli Neumann.
